Test results taken from patent publication US8552048B2, “Phosphoramidate alkylator prodrugs for the treatment of cancer” (Threshold Pharmaceuticals, Inc., priority 2006, dated 2013).

Tests used:
[1] = test system: HT29 Human colorectal cancer cells; assay: HT29 xenograft, TH302 in combination with irinotecan; format: in vivo, mice; conditions: CPT-11 monotherapy 50 mg/kg i.p. Q7D×3, vs control group
Description: TH302 and irinotecan (CPT-11) were formulated as follows: TH302 (7.5 mg/mL) in saline and CPT-11 (5 mg/mL) in 2% Tween80-saline. The formulations were filtered through a 0.2 μm filter then delivered to animals within one hour after it was made. HT29 Human colorectal cancer cells were prepared in 50% matrigel and 50% RPMI 1640 medium and implanted (3×10^6 cells) in the subcutaneous space of the right flank of 90 mice (0.2 mL/mouse). Tumor volumes reached about 160 mm^3 on day 12 day post implantation. Seventy two animals with similar tumor size were chosen for treatment after randomization. The remaining mice were used as no treatment control.
The mice were administered TH302 intravenously at 75 mg/kg, once per week for 2 weeks (Q7D×2, i.v.) alone, and in combination with CPT-11, administered at, 50 mg/kg, (Q7D×3, intraperitoneally (i.p.)). […] After dosing started, tumor volumes were measured twice per week. […] For the mice administered CPT-11 alone, i.e., those on CPT-11 monotherapy, 41% tumor growth inhibition was observed compared to the control group of mice.

[2] = test system: PC-3 human prostate tumor; assay: GFP PC3 prostate orthotopic model; format: in vivo, mice
[3] = test system: PC-3 human prostate cells; assay: PC-3 luciferase intracardiac metastasis model (bioluminescence); format: in vivo, nude mice
Description: Male nude mice were injected into their left ventricle with PC-3 human prostate cells (3×10^6) transfected with the gene for luciferase. The success of the intracardiac transfections was verified by a bioluminescence scan after the injection. On day 14, the mice with established bone tumor burden were randomized into four treatment groups (N=10): Taxotere® alone (20 mg/kg once a week for three weeks, i.v.), TH302 alone (50 mg/kg daily, 5 days a week for 3 weeks), combination treatment with both agents, and vehicle. Bioluminescence imaging was performed under anesthesia using an IVIS 50 optical imaging system.

[4] = Pharmacokinetics after repeated administration (Q7D×3) to rats; format: in vivo
Description: Each rat received a 30 minute infusion once a week for three weeks (Q7D×3).
Br-IPM being capable of reacting with water and a number of other nucleophiles, for HPLC analysis of Br-IPM, the plasma obtained was frozen and treated with NaF and potassium oxalate.

[5] = Pharmacokinetics after repeated administration (Q7D×3) to dogs; format: in vivo
Excerpt: These changes were reversible.

[6] = test system: IGROV1 human ovarian cancer cells; assay: IGROV1 ovarian cancer xenograft; format: in vivo; conditions: CDDP 4 mg/kg and 6 mg/kg i.p. Q7D×2 (both doses)
Description: Forty nude mice were subcutaneously implanted with IGROV1 human ovarian cancer cells (5×10^6 cells/mouse). The tumor volumes were measured twice weekly starting on day 7. On day 8, tumor volumes reached about 97.7±3.9 mm^3. The mice were randomized in 3 treatment groups that were administered the following: CDDP (4 mg/kg, ip, Q7D×2), CDDP (6 mg/kg, i.p. Q7D×2), and TH302 (75 mg/kg, i.v., Q7D×2). A control group of mice were administered saline. […] Forty five days after the first administration of TH302, tumor growth inhibition was 66%. The tumor growth delay (to 300 mm^3) was 19 days.

[7] = bromo-IPM in rats after TH302 12.5 mg/kg Q7D×3, Day 15
[8] = bromo-IPM in rats after TH302 25 mg/kg Q7D×3, Day 15
[9] = bromo-IPM in rats after TH302 50 mg/kg Q7D×3, Day 15
[10] = bromo-IPM in dogs after TH302 8 mg/kg Q7D×3, Day 15
[11] = bromo-IPM in dogs after TH302 16 mg/kg Q7D×3, Day 15

## CCc1c2c(nc3ccc(OC(=O)N4CCC(N5CCCCC5)CC4)cc13)-c1cc3c(c(=O)n1C2)COC(=O)[C@]3(O)CC [CPT-11, irinotecan]
[1]
  tumor growth inhibition: 41%

## CC(=O)O[C@@]12CO[C@@H]1C[C@H](O)[C@@]1(C)C(=O)[C@H](O)C3=C(C)[C@@H](OC(=O)[C@H](O)[C@@H](NC(=O)OC(C)(C)C)c4ccccc4)C[C@@](O)([C@@H](OC(=O)c4ccccc4)[C@H]21)C3(C)C [Taxotere®, Docetaxel]
[2]; Taxotere 12 mg/kg once a week for two weeks, alone or with TH302
  tumor volume regressed to: 21±15 mm^3
[2]; Taxotere alone or with TH302, P<0.01 combination vs Taxotere alone
  tumor volume on day 62: 766 mm^3
[2]; single agent, Taxotere 12 mg/kg once a week for two weeks
  tumor growth delay (TGD): 31 days
[3]; TH302 50 mg/kg daily 5 days a week for 3 weeks, Taxotere 20 mg/kg once a week for three weeks i.v., or both
  toxicities (weight loss, deaths): weight loss and a toxicity-related death
[3]; Taxotere alone 20 mg/kg once a week for three weeks, i.v.
  bone metastases and soft tissue tumor burden compared to vehicle: significant reduction in bone metastases and soft tissue tumor burden

## O=P(O)(NCCBr)NCCBr [Br-IPM, HO—P(═O)(NHCH2CH2Br)2]
[4]; [7]
  AUC: 107 ng·h/mL
  Cmax: 286 ng/mL
  half-life: 8.88 min
[4]; [8]
  AUC: 97 ng·h/mL
  Cmax: 375 ng/mL
  half-life: 8.28 min
[4]; [9]
  AUC: 143 ng·h/mL
  Cmax: 385 ng/mL
  half-life: 23 min
[4]; rats, after TH302 25 mg/kg
  AUC of the active toxin Br-IPM: about 97 h×ng/mL
[5]; [10]
  AUClast: 21.8 ng·h/mL
  Cmax: 62.7 ng/mL
[5]; [11]
  AUClast: 60.7 ng·h/mL
  Cmax: 146 ng/mL
  half-life: 18.3 min
[5]; dogs, after TH302 8 mg/kg
  AUC of the active toxin Br-IPM: about 21.8 h×ng/mL

## N.N.[Cl][Pt][Cl] [CDDP, reference compound]
[6]
  reduction in tumor volume: did not show significant reduction in tumor volume
